Data set [1] concerns the target T1, COX-2 (purified enzyme from ewe placenta) (Ovis aries, UniProt P79208).
T1 construct: purified enzyme from ewe placenta; from tissue; host or cells: ewe placenta
T1 sequence (P79208 17-603): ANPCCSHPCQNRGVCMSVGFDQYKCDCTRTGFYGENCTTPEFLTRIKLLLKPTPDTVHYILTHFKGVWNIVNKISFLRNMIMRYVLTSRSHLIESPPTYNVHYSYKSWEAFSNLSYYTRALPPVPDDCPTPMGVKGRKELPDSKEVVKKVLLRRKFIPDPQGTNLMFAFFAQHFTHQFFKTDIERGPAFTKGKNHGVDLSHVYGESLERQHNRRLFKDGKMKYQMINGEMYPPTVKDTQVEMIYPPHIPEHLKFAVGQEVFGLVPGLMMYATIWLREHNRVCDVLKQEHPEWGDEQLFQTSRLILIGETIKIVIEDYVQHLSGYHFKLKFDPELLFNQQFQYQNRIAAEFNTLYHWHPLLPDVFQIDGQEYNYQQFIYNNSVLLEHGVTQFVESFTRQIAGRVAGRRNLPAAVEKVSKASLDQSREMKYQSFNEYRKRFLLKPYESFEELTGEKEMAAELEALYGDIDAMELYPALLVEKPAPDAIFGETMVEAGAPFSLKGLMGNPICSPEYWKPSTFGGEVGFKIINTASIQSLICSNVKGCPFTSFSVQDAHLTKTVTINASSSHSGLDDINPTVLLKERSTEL
Briefly: Inhibition of COX-2 enzymatic activity (PGE2 by EIA). Type of data set: biochemical. The conditions noted are these: arachidonic acid 4 μM, mean of 4 determinations; for inhibition at 10 µM: 10^-5 M; for inhibition at 0.1 µM: 10^-7 M. On the procedure: (§1) Arachidonic acid (6 μM for COX-1, 4 μM for COX-2) is added to the reaction medium and incubation is carried out for 5 minutes at 25° C. When incubation has ended, the enzymatic reaction is stopped by the addition of 1N HCl and the PGE2 produced is determined by EIA. The results are expressed as the percentage inhibition of the COX-1 and COX-2 enzymatic activities and correspond to mean (±) standard deviations from the average of 4 determinations.

Data set [2] concerns oedema with carrageenan. Briefly: Anti-inflammatory activity: test of oedema with carrageenan. The format is in vivo. The conditions noted are these: Rattus norvegicus, 30 mg/kg oral, rats, after 3 hours, n=6 per dose, read-out: Anti-inflammatory activity, % inhibition (volume of the oedema). The method, then:
(§2) The anti-inflammatory activity of the compounds of the Examples has been evaluated according to the method of oedema with carrageenan and the analgesic activity has been evaluated according to the method of arthritis with kaolin.
The anti-inflammatory activity is evaluated in rats by the test of oedema with carrageenan. The product is administered orally at a rate of 2.5 ml/100 g (n=6 animals per dose) 2 hours 30 minutes after a water overload taken orally (2.5 ml/100 g). One hour after administration of the product, the oedema is induced by plantar subcutaneous injection of aqueous 2% carrageenan solution. The percentage inhibition of the volume of the oedema is calculated after 3 hours by measuring the volume of the paw with the aid of a mercury plethysmometer.

Data set [3] deals with arthritis with kaolin (pain response). The experiment in a line: Analgesic activity: test of arthritis with kaolin. Type of data set: in vivo. The conditions noted are these: 30 mg/kg oral, rats, 5 hours 30 minutes after administration, n=10 per dose. On the procedure: as §2
The analgesic activity is evaluated in rats by the test of arthritis with kaolin. Thirty minutes after intra-articular administration of an aqueous 10% suspension of kaolin, the product is administered orally at a rate of 1 ml/100 g (n=10 animals per dose). The percentage inhibition of the animal's pain response (by rating the way it walks) is calculated 5 hours 30 minutes after administration of the product.

Data set [4] is described as follows: Gastric tolerance (ulcerogenic dose). Also noted: species or system Charles River rats strain CD. To be noted: rat, in vivo. On the procedure:
The gastic tolerance study is carried out in Charles River rats strain CD weighing 110 to 150 g. The animals are placed on a water diet 24 hours before administration of the product or the vehicle alone, via the oral route (1 ml/100 g) (n=6 animals per dose). Six hours after administration,the animals are sacrificed and the stomachs are removed and opened along the greater curvature. The number of haemorrhagic spots and lines per stomach identified macroscopically permits establishing an ulceration index (0: no lesion, 1: 1 to 2 lesions, 2: 3 to 4 lesions, 3: 5 to 8 lesions, 4: 9 to 16 lesions, 5: more than 17 lesions) and estimating the 50% ulcerogenic dose (UD50 =dose expressed in mg/kg inducing 4 to 5 lesions).

Data set [5] deals with T2, COX-1 (purified enzyme from ram seminal vesicles) (Ovis aries, UniProt P05979).
T2 construct: purified enzyme from ram seminal vesicles; from tissue; host or cells: ram seminal vesicles
T2 sequence (P05979 25-600): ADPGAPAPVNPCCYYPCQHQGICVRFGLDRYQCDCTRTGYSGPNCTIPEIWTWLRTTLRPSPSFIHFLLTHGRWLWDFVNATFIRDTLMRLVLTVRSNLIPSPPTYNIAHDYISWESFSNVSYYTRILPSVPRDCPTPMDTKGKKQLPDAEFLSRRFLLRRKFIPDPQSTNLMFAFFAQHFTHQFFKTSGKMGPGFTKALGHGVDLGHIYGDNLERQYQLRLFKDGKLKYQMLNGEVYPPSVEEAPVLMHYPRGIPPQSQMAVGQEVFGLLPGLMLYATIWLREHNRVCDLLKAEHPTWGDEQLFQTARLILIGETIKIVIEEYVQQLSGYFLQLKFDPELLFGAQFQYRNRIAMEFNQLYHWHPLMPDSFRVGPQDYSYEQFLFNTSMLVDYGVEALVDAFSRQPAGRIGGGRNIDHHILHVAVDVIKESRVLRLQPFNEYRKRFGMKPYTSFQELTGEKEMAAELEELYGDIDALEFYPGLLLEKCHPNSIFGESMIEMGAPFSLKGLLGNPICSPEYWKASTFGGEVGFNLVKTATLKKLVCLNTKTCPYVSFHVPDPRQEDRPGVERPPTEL
Briefly: Inhibition of COX-1 enzymatic activity (PGE2 by EIA). Type of data set: biochemical. To be noted: arachidonic acid 6 μM, mean of 4 determinations; for inhibition at 10 µM: 10^-5 M; for inhibition at 0.1 µM: 10^-7 M. The method, then: as §1

Here are results for nine compounds from patent US5866596A, “3,4-diaryloxazolone derivatives, their methods of preparation and their uses in therapeutics” (Laboratories UPSA, priority 1996, dated 1999).

Where two headings read alike, the source gives them in different places. Where only a bound is given, the exact number is not on record here.

For orientation: inhibition means the drop in the measured response relative to a control, in per cent. Lower therefore signals little suppression. Regarding `CS(=O)(=O)c1ccc(-c2coc(=O)n2-c2ccc(F)cc2)cc1` [Example 4, 3-(4-fluorophenyl)-4-(4-methanesulfonylphenyl)-3H-oxazol-2-one], in data set [1], at 10 µM the inhibition was 82.7% and testing at 0.1 µM gave an inhibition of 12%. Further, the inhibition in vivo at 30 mg/kg in data set [2] turned out to be 53%. The “Analgesic activity, % inhibition (pain response)” value (from here on “Analgesic activity, % inhibition”) in data set [3] is 55%. Besides, in data set [4] (po), the TD50 at 6 h is above 300 mg/kg. Besides, in data set [5], 10 µM produced 0% inhibition and 0.1 µM produced 0% inhibition.

Take `COc1ccc2c(c1)c(CC(=O)O)c(C)n2C(=O)c1ccc(Cl)cc1` [indomethacin, reference compound]: the TD50 at 6 h in data set [4] (rats, oral, 6 hours after administration, dose inducing 4 to 5 lesions, read-out: UD50 (confidence limit), 50% ulcerogenic dose) was 8.3 mg/kg.

With `CS(=O)(=O)c1ccc(-c2coc(=O)n2-c2ccccc2)cc1` [Example 16, 3-phenyl-4-(4-methanesulfonylphenyl)-3H-oxazol-2-one], the inhibition at 10 µM in data set [1] is 78%; in data set [5], 0%. Moreover, the results for the inhibition at 0.1 µM in data set [1] and in data set [5] were 16% and 0%, respectively. The inhibition in vivo at 30 mg/kg in data set [2] worked out at 45%. In data set [3], the “Analgesic activity, % inhibition” value is 60%.

Consider `CS(=O)(=O)c1ccc(-c2coc(=O)n2-c2ccc(Cl)c(Cl)c2)cc1` [Example 20, 3-(3,4-dichlorophenyl)-4-(4-methanesulfonylphenyl)-3H-oxazol-2-one], for which, in data set [1], at 10 µM the inhibition was 94% and at 0.1 µM the inhibition was 26%. The inhibition in vivo at 30 mg/kg in data set [2] came out at 48%. Besides, in data set [3], the “Analgesic activity, % inhibition” value stood at 75%. In data set [5], this compound gave an inhibition at 10 µM of 0% and an inhibition at 0.1 µM of 0%.

As to `CS(=O)(=O)c1ccc(-c2coc(=O)n2-c2cccc(F)c2)cc1` [Example 21, 3-(3-fluorophenyl)-4-(4-methanesulfonylphenyl)-3H-oxazol-2-one], in data set [1], testing at 10 µM gave an inhibition of 76% and the inhibition at 0.1 µM stood at 11%. In data set [2], the inhibition in vivo at 30 mg/kg turned out to be 55%. In data set [5], the inhibition at 10 µM was 0% and at 0.1 µM the inhibition was 0%.

As for `CS(=O)(=O)c1ccc(-c2coc(=O)n2-c2ccc(Cl)cc2)cc1` [Example 17, 3-(4-chlorophenyl)-4-(4-methanesulfonylphenyl)-3H-oxazol-2-one], in data set [1], the inhibition at 10 µM is 85% and testing at 0.1 µM gave an inhibition of 11%. Also, the inhibition in vivo at 30 mg/kg in data set [2] worked out at 32%. For the same compound, the “Analgesic activity, % inhibition” value in data set [3] was determined as 42%. In data set [5], this compound gave an inhibition at 10 µM of 0% and an inhibition at 0.1 µM of 0%.

In data set [1], `CS(=O)(=O)c1ccc(-c2coc(=O)n2-c2cccc(Cl)c2)cc1` [Example 19, 3-(3-chlorophenyl)-4-(4-methanesulfonylphenyl)-3H-oxazol-2-one] yielded an inhibition at 10 µM of 87% and an inhibition at 0.1 µM of 18%. The inhibition in vivo at 30 mg/kg in data set [2] came out at 37%. In data set [3], the “Analgesic activity, % inhibition” value is 60%. Besides, in data set [5], at 10 µM the inhibition was 0% and testing at 0.1 µM gave an inhibition of 0%.

Take `Cc1ccc(-n2c(-c3ccc(S(C)(=O)=O)cc3)coc2=O)cc1` [Example 22, 3-(4-methylphenyl)-4-(4-methanesulfonylphenyl)-3H-oxazol-2-one]: in data set [1], the inhibition at 10 µM was found to be 88% and the inhibition at 0.1 µM is 12%. Moreover, the inhibition in vivo at 30 mg/kg in data set [2] was 42%.

Consider `Cc1cccc(-n2c(-c3ccc(S(C)(=O)=O)cc3)coc2=O)c1` [Example 18, 3-(3-methylphenyl)-4-(4-methanesulfonylphenyl)-3H-oxazol-2-one], for which, in data set [1], the inhibition at 10 µM was 92% and the inhibition at 0.1 µM came out at 14%. Moreover, the inhibition in vivo at 30 mg/kg in data set [2] stood at 18%. The “Analgesic activity, % inhibition” value in data set [3] is listed as 0%. Further, in data set [5], testing at 10 µM gave an inhibition of 0% and at 0.1 µM the inhibition was 0%.
